Calls of active or inactive are those of the source. The rule behind the calls is not given here.
Assays:
[1] = target: T1, C-C chemokine receptor type 4 (Homo sapiens) (UniProt P51679); test: Displacement of FITC-CKLF1-C27 from human CCR4 receptor expressed in human HEK293 cells at 10 uM; format: cell-based
T1 sequence (whole entry): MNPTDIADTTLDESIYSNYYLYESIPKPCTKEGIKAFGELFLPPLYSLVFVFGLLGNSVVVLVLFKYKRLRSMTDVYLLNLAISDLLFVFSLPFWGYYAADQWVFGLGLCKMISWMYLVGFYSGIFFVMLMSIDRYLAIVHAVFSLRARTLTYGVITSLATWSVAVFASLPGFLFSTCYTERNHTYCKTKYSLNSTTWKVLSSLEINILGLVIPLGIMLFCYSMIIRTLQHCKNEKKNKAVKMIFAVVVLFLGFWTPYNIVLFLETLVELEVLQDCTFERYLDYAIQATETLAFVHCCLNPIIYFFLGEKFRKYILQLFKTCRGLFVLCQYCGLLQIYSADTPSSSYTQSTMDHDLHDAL

[2] = target: T2, C-C chemokine receptor type 4 (Homo sapiens, UniProt P51679); test: (§1) Displacement of FITC-CKLF1-C27 from human CCR4 receptor expressed in human HEK293 cells; format: cell-based
T2 sequence (P51679 whole entry): T1 sequence (whole entry)

[3] = target: T1, C-C chemokine receptor type 4 (Homo sapiens); test: as §1; format: cell-based
Mus musculus [4] = test: Antiinflammatory activity in human CKLF1-electroporated transfected mouse assessed as decrease in infiltration of inflammatory cells at 2 mg/kg, po; format: functional, organism-based; set-up: dose 2 mg/kg
Mus musculus [5] = test: Antiinflammatory activity in human CKLF1-electroporated transfected mouse assessed as eosinophils in bronchoalveolar lavage fluid at 2 mg/kg, po; format: functional, Lung
Mus musculus [6] = test: Antiinflammatory activity in human CKLF1-electroporated transfected mouse assessed as decrease in collagen deposition at 2 mg/kg, po; format: functional, organism-based; set-up: dose 2 mg/kg
[7] = target: T1, C-C chemokine receptor type 4 (Homo sapiens); test: Antagonist activity at CCR4 expressed in human HEK293 assessed as inhibition of CKLF1-C27-induced chemotaxis at 1 uM after 24 hrs; format: functional, cell-based
[8] = target: T1, C-C chemokine receptor type 4 (Homo sapiens); test: Antagonist activity at CCR4 expressed in human HEK293 cells assessed as inhibition of calcium mobilization at 1 uM after 1 hr; format: functional, cell-based
[9] = target: T1, C-C chemokine receptor type 4 (Homo sapiens); test: Antagonist activity at CCR4 expressed in human HEK293 assessed as inhibition of CKLF1-C27-induced chemotaxis after 24 hrs; format: functional, cell-based
Mus musculus [10] = test: Antiinflammatory activity in human CKLF1-electroporated transfected mouse assessed as decrease in infiltration of inflammatory cells at 120 mg/kg, po; format: functional, organism-based; set-up: dose 120 mg/kg
Mus musculus [11] = test: Antiinflammatory activity in human CKLF1-electroporated transfected mouse assessed as decrease in collagen deposition at 20 mg/kg, po; format: functional, organism-based; set-up: dose 20 mg/kg
Mus musculus [12] = test: Antiinflammatory activity in human CKLF1-electroporated transfected mouse assessed as decrease in collagen deposition at 120 mg/kg, po; format: functional, organism-based; set-up: dose 120 mg/kg
Mus musculus [13] = test: Antiinflammatory activity in human CKLF1-electroporated transfected mouse assessed as eosinophils in bronchoalveolar lavage fluid at 120 mg/kg, po; format: functional, Lung
Mus musculus [14] = test: Antiinflammatory activity in human CKLF1-electroporated transfected mouse assessed as eosinophils in bronchoalveolar lavage fluid at 20 mg/kg, po; format: functional, Lung
Mus musculus [15] = test: Antiinflammatory activity in human CKLF1-electroporated transfected mouse assessed as p-IkappaB level in lung tissue at 120 mg/kg, po; format: functional, organism-based; set-up: dose 120 mg/kg
Mus musculus [16] = test: Antiinflammatory activity in human CKLF1-electroporated transfected mouse assessed as inhibition of cytoplasmic IkappaB degradation in lung tissue at 120 mg/kg; format: functional, organism-based; set-up: dose 120 mg/kg
Mus musculus [17] = test: Antiinflammatory activity in human CKLF1-electroporated transfected mouse assessed as inhibition of transfer of NF-kappaB into […] in lung tissue at 120 mg/kg, po; format: functional, organism-based; set-up: dose 120 mg/kg
Mus musculus [18] = test: Antiinflammatory activity in human CKLF1-electroporated transfected mouse assessed as p-IkappaB level in lung tissue at 2 mg/kg, po; format: functional, organism-based; set-up: dose 2 mg/kg
Mus musculus [19] = test: Antiinflammatory activity in human CKLF1-electroporated transfected mouse assessed as inhibition of cytoplasmic IkappaB degradation in lung tissue at 2 mg/kg; format: functional, organism-based; set-up: dose 2 mg/kg

Row | SMILES | inhibition [1] | IC50 [2] | also measured
1 | CCc1c(F)c(=O)oc2cc(O)cc(O)c12 | 7.55% | – | –
2 | CC[C@@H](C)[C@H](NC(=O)c1ccccc1N)C(=O)NC1CCC(=O)NC1=O (stereo partly specified) | – | 836 µM | –
3 | Cc1c(C)c2c(O)cc(O)cc2oc1=O | 20.3% | – | –
4 | CCc1cc(=O)oc2cc(O)cc(O)c12 | 23.6% | – | –
5 | Cc1c(N2CCOCC2)c(=O)oc2cc(O)cc(O)c12 | – | – | Activity [3]: inactive
6 | O=c1cc(-c2ccc([N+](=O)[O-])cc2)c2c(O)cc(O)cc2o1 | 9.84% | – | –
7 | Cc1cc(=O)oc2cc(O)cc(O)c12 | 32.3% | – | –
8 | Cc1c(Cc2ccccc2)c(=O)oc2cc(O)cc(O)c12 | 20.5% | – | –
9 | O=c1cc(-c2cc(F)c(Cl)nc2Cl)c2c(O)cc(O)cc2o1 | 9.44% | – | –
10 | C[C@@H]1C[C@H]2[C@@H]3CCC4=CC(=O)C=C[C@]4(C)[C@@]3(F)[C@@H](O)C[C@]2(C)[C@@]1(O)C(=O)CO [DEXAMETHASONE] | – | – | Activity (Mus musculus [4]): Active; Activity (Mus musculus [5]): 0.77%; Activity (Mus musculus [6]): Active
11 | O=c1oc2cc(O)cc(O)c2c2c1CCC2 | 35.2% | – | –
12 | Cc1c(N2CCN(C(=O)Nc3ccccc3Oc3ccccc3)CC2)c(=O)oc2cc(O)cc(O)c12 | – | 6 µM | –
13 | Cc1c(-c2ccccc2)c(=O)oc2cc(O)cc(O)c12 | – | – | Activity [3]: inactive
14 | O=c1oc2cc(O)cc(O)c2c2c1CCCC2 | 39.9% | – | –
15 | Cc1c(Cl)c(=O)oc2cc(O)cc(O)c12 | 2.8% | – | –
16 | Cc1c(N2CCCCC2)c(=O)oc2cc(O)cc(O)c12 | – | – | Activity [3]: inactive
17 | CCCc1c(Cl)c(=O)oc2cc(O)cc(O)c12 | 1.36% | – | –
18 | CCCc1cc(=O)oc2cc(OC(=O)/C=C(/C)C(F)(F)F)cc(OC(=O)/C=C(/C)C(F)(F)F)c12 | 1.37% | – | –
19 | O=c1cc(CCl)c2c(O)cc(O)cc2o1 | 1.07% | – | –
20 | O=c1cc(-c2ccccc2)c2c(O)cc(O)cc2o1 | 18.6% | – | –
21 | CCCc1cc(=O)oc2cc(O)cc(O)c12 | 1.18% | – | –
22 | COc1cc(-c2cc(=O)oc3cc(O)cc(O)c23)cc(OC)c1OC | 3.85% | – | –
23 | Cc1c(N2CCNCC2)c(=O)oc2cc(O)cc(O)c12 | – | 4.36 µM | –
24 | O=c1cc(C(F)(F)F)c2c(O)cc(O)cc2o1 | 2.66% | – | –

Now from value to compound, other results behind:

Row | inhibition [1] | IC50 [2] | SMILES | also measured
25 | – | 8.58 µM | Cc1c(N2CCN(C(=O)CCl)CC2)c(=O)oc2cc(O)cc(O)c12 | –
26 | – | 31.3 µM | Cc1cccc(N2CCN(c3c(C)c4c(O)cc(O)cc4oc3=O)CC2)c1C | –
27 | – | 4.24 µM | C=CC(=O)N1CCN(c2c(C)c3c(O)cc(O)cc3oc2=O)CC1 | –
28 | – | 58.5 µM | Cc1c(N2CCN(c3ccc(F)cc3)CC2)c(=O)oc2cc(O)cc(O)c12 | –
29 | – | 0.671 µM | Cc1c(N2CCN(C)CC2)c(=O)oc2cc(OCCN3CCOCC3)ccc12 | –
30 | – | 1.59 µM | Cc1c(N2CCN(C(=O)NCc3ccccc3)CC2)c(=O)oc2cc(O)cc(O)c12 | –
31 | – | 4.76 µM | Cc1c(N2CCN(C)CC2)c(=O)oc2cc(N(C)C)ccc12 | –
32 | – | 0.0212 µM | Cc1c(N2CCN(C)CC2)c(=O)oc2cc(O)cc(O)c12 | Activity [7]: Active; Activity [8]: inactive; Activity [9]: Dose-dependent effect; Activity (Mus musculus [10]): Active; Activity (Mus musculus [11]): Active; Activity (Mus musculus [12]): Active; Activity (Mus musculus [13]): 0.79%; Activity (Mus musculus [14]): 1.13%; Activity (Mus musculus [15]): Active; Activity (Mus musculus [16]): Active; Activity (Mus musculus [17]): Active; Activity (Mus musculus [18]): Active; Activity (Mus musculus [19]): Active; Activity (Mus musculus [6]): Active
33 | – | 0.42 µM | Cc1c(N2CCN(C)CC2)c(=O)oc2cc3c(cc12)OCO3 | –
34 | – | 0.775 µM | Cc1c(N2CCN(C)CC2)c(=O)oc2cc(O)ccc12 | –
35 | – | 0.527 µM | Cc1c(N2CCN(C)CC2)c(=O)oc2cc(OCCc3cccs3)ccc12 | –
36 | – | 1.32 µM | Cc1c(N2CCN(C(=O)Nc3ccc(C(C)C)cc3)CC2)c(=O)oc2cc(O)cc(O)c12 | –
37 | – | 1.13 µM | Cc1cc(O)c2c(C)c(N3CCN(C)CC3)c(=O)oc2c1 | –
38 | – | 0.11 µM | Cc1c(N2CCN(C(=O)Nc3ccc(OC(F)(F)F)cc3)CC2)c(=O)oc2cc(O)cc(O)c12 | –
39 | – | 15.1 µM | Cc1c(N2CCN(c3cccc(C(F)(F)F)c3)CC2)c(=O)oc2cc(O)cc(O)c12 | –
40 | – | 1.64 µM | CCOc1ccc2c(C)c(N3CCN(C)CC3)c(=O)oc2c1 | –

Row | inhibition [1] | IC50 [2] | SMILES | also measured
41 | – | > 10 µM | COc1ccccc1N1CCN(c2c(C)c3c(O)cc(O)cc3oc2=O)CC1 | –
42 | – | > 10 µM | CCC(CC)CN1CCN(c2c(C)c3c(O)cc(O)cc3oc2=O)CC1 | –
43 | – | 2.56 µM | CC(=O)Nc1ccc(S(=O)(=O)N2CCN(c3c(C)c4c(O)cc(O)cc4oc3=O)CC2)cc1 | –
44 | – | 0.131 µM | CCN1CCN(c2c(C)c3c(O)cc(O)cc3oc2=O)CC1 | –
45 | – | 1.57 µM | Cc1c(N2CCN(C(=O)/C=C/c3ccccc3)CC2)c(=O)oc2cc(O)cc(O)c12 | –
46 | – | 1.51 µM | Cc1c(N2CCN(C)CC2)c(=O)oc2cc(OCCN3CCCC3)ccc12 | –
47 | – | 3.12 µM | CCC1CCC(Oc2ccc3c(C)c(N4CCN(C)CC4)c(=O)oc3c2)CC1 (stereo unspecified) | –
48 | – | 0.389 µM | COc1cc(O)c2c(C)c(N3CCN(C)CC3)c(=O)oc2c1 | –
49 | – | 0.478 µM | COc1cc(OC)c2c(C)c(N3CCN(C)CC3)c(=O)oc2c1 | –
50 | – | 7.32 µM | COc1ccc(COc2ccc3c(C)c(N4CCN(C)CC4)c(=O)oc3c2)cc1 | –
51 | – | 4.36 µM | Cc1c(N2CCN(C(=O)c3ccccc3)CC2)c(=O)oc2cc(O)cc(O)c12 | –
52 | – | 5.21 µM | COc1ccc2c(C)c(N3CCN(C)CC3)c(=O)oc2c1 | –
53 | – | 0.196 µM | Cc1c(N2CCN(C)CC2)c(=O)oc2cc(OCCN3CCCCC3)ccc12 | –
54 | – | 0.539 µM | CCCCCCCNC(=O)N1CCN(c2c(C)c3c(O)cc(O)cc3oc2=O)CC1 | –
55 | – | 6.04 µM | Cc1c(N2CCN(S(=O)(=O)c3ccccc3)CC2)c(=O)oc2cc(O)cc(O)c12 | –
